From US9018175B2 (Takeda GmbH, priority 2009, dated 2015) come the findings set out here.

Structures are written as SMILES.

Experiment [1] concerns the target T1, PDE4B1 (Homo sapiens, UniProt Q07343).
T1 construct: made in house; host or cells: SF21 insect cells (baculovirus; pCR-Bac vector)
In words: Inhibition of PDE4B1 activity (SPA, [3H]cAMP). The format is biochemical. Particulars: recombinant PDE4B1 expressed in SF21 cells; 0.5 pM [sic] cAMP; values given as bins; read-out: PDE4B1 inhibitory values measured as −logIC50 (converted). The procedure:
The PDE4B1 (GB no. L20966) was a gift of Prof. M. Conti (Stanford University, USA). It was amplified from the original plasmid (pCMV5) via PCR with primers Rb18 (5′-[…]-3′) and Rb10 (5′-[…]-3′) and cloned into the pCR-Bac vector (Invitrogen, Groningen, NL).
The recombinant baculovirus was prepared by means of homologous recombination in SF9 insect cells. The expression plasmids were cotransfected with Baculo-Gold DNA (Pharmingen, Hamburg) using a standard protocol (Pharmingen, Hamburg). Wt virus-free recombinant virus supernatants were selected using plaque assay methods. After that, high-titre virus supernatants were prepared by amplifying 3 times. PDE4B1 was expressed in SF21 cells by infecting 2×10^6 cells/ml with an MOI (multiplicity of infection) between 1 and 10 in the serum-free medium Insect Express Sf9-S2 (PAA, Pasching, Austria). The cells were cultured at 28° C. for 48-72 hours, after which they were pelleted for 5-10 min at 1000×g and 4° C.
The SF21 insect cells were resuspended, at a concentration of approx. 10^7 cells/ml, in ice-cold (4° C.) homogenization buffer (20 mM Tris, pH 8.2, containing the following additions: 140 mM NaCl, 3.8 mM KCl, 1 mM EGTA, 1 mM MgCl2, 10 mM e-mercaptoethanol, 2 mM benzamidine, 0.4 mM Pefablock, 10 pM leupeptin, 10 pM pepstatin A, 5 pM trypsin inhibitor) and disrupted by ultrasonication. The homogenate was then centrifuged for 10 min at 1000, g and the supernatant was stored at −80° C. until subsequent use (see below). The protein content was determined by the Bradford method (BioRad, Munich) using BSA as the standard.
PDEB1 activities were measured in a 96-well platform using SPA (scintillation proximity assay) yttrium silicate beads (RPNQ1050 from GE Healthcare). In a first step the PDE activity operates hydrolysis of either [^3H] cAMP (substrate) into [^3H] 5′AMP. In a second step substrate and product are distinguished following addition of SPA yttrium silicate beads. Indeed, in the presence of zinc sulphate the linear [^3H] […] Close proximity of bound [^3H] […] The test volume is 100 pl and contains 20 mM Tris buffer (pH 7.4), 0.1 mg/ml of BSA, 5 mM Mg^2+, […] (including about 50,000 cpm of [3H]cAMP), 1 pl of the respective substance dilution in DMSO and sufficient recombinant PDE (1000, g supernatant, see above) to ensure that 10-20% of the cAMP is converted under the said experimental conditions. […] After a preincubation of 5 min at 37° C., the reaction is started by adding the substrate (cAMP) and the assays are incubated for a further 15 min; after that, they are stopped by adding SPA beads (50 pl). In accordance with the manufacturer's instructions, the SPA beads had previously been resuspended in water, but were then diluted 1:3 (v/v) in water; the diluted solution also contains 3 mM IBMX to ensure a complete PDE activity stop. After the beads have been sedimented (>30 min), the MTP's are analyzed in commercially available luminescence detection devices. The corresponding IC50 values of the compounds for the inhibition of PDE4B1 activity are determined from the concentration-effect curves by means of non-linear regression.

Experiment [2] concerns the target T2, human PDE5 (Homo sapiens, UniProt O76074).
T2 construct: from tissue; host or cells: human platelets from fresh donor blood (10,000 g supernatant of sonicated platelets)
The experiment in a line: Inhibition of PDE5 activity (SPA, [3H]cGMP, platelet lysate). The format is biochemical. Particulars: PDE5 from human platelet lysate; values given as bins; read-out: PDE5A inhibitory values measured as −logIC50 (converted). Here is the method: As a source for human PDE5, platelets are used. For that purpose, 150 ml fresh blood from human donors anticoagulated with citrate [final concentration 0.3% (w/v)] is centrifuged at 200 g for 10 min to obtain the so-called platelet-rich-plasma (PRP) as a supernatant. 1/10 volume of ACD solution (85 mM Na3-citrate, 111 mM D-glucose, 71 mM citric acid, pH 4.4) is added to 9/10 volume of PRP. After centrifugation (1,400 g, 10 min) the cell pellet is resuspended in 3 ml homogenization buffer (NaCl 140 mM, KCl 3.8 mM, EGTA (ethylene glycol tetraacetic acid) 1 mM, MgCl2 1 mM, Tris-HCl 20 mM, beta-mercaptoethanol 1 mM, pH 8.2) plus protease-inhibitor mix giving rise to the final concentrations of 0.5 mM Pefablock (Roche), 10 μM Leupeptin, 5 μM Trypsininhibitor, 2 mM Benzamidin and 10 μM Pepstatin A. The suspension is sonified and thereafter centrifuged for 15 min at 10,000 g. The resulting supernatant (platelet lysate) is used for enzymatic testings.
PDE5 activities were measured in a 96-well platform using SPA (scintillation proximity assay) yttrium silicate beads (RPNQ1050 from GE Healthcare). In a first step the PDE activity operates hydrolysis of either [^3H] cGMP (substrate) into [^3H] 5′GMP. In a second step substrate and product are distinguished following addition of SPA yttrium silicate beads. Indeed, in the presence of zinc sulphate the linear [^3H] […] Close proximity of bound [^3H] […] The test volume is 100 pl and contains 20 mM Tris buffer (pH 7.4), 0.1 mg of BSA (bovine serum albumin)/ml, 5 mM Mg^2+, 1 μM motapizone (PDE3 Inhibitor), 10 nM PDE2 inhibitor 2-(3,4-dimethoxybenzyl)-7-[(1R,2R)-2-hydroxy-1-(2-phenylethyl)propyl]-5-methylimidazo[5,1-f][1,2,4]triazin-4(3H)-one, […] (cyclic guanosine monophosphate) (including about 50,000 cpm of [3H]cGMP as a tracer), 1 pl of the respective compound dilution in dimethylsulfoxide (DMSO) and sufficient PDE5-containing platelet lysat (10,000, g supernatant, see above) to ensure that 10-20 wt % of the cGMP is converted under the said experimental conditions. […] After a preincubation of 5 min at 37° C., the reaction is started by adding the substrate (cGMP) and the assay is incubated for a further 15 min; after that, it is stopped by adding SPA beads (50 pl). In accordance with the manufacturer's instructions, the SPA beads had previously been resuspended in water, but are then diluted 1:3 (v/v) in water; the diluted solution also contains 3 mM […]3-isobutyl-1-methylxanthine (IBMX) to ensure a complete PDE activity stop. After the beads have been sedimented (>30 min), the MTP's are analyzed in commercially available luminescence detection devices. The corresponding IC50 values of the compounds for the inhibition of PDE activity are determined from the concentration-effect curves by means of non-linear regression.

T1 sequence (Q07343 whole entry): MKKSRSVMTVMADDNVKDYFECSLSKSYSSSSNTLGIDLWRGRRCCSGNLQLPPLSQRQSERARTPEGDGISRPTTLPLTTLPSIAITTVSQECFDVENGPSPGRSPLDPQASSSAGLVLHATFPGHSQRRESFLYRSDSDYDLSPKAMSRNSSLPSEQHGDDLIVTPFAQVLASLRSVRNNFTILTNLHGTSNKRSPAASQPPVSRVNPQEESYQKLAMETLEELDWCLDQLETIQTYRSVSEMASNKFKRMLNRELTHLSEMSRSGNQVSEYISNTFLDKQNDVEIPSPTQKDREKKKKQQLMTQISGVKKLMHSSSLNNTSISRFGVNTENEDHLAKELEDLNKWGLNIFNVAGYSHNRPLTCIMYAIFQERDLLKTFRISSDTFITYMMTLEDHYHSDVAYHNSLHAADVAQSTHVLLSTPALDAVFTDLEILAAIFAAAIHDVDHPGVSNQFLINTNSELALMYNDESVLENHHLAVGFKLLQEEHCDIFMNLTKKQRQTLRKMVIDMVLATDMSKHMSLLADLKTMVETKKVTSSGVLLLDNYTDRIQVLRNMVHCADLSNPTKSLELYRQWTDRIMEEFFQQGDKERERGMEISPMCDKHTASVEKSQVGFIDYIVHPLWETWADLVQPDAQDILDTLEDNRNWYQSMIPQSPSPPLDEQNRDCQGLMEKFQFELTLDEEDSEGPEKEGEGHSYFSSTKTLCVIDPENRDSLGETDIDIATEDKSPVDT

In the case of `CCOc1cc2c(cc1OC)C(c1ccc(C(=O)N3CCC(n4c(=O)c5sc(-c6ccccc6)cc5n(Cc5cn(CC)nn5)c4=O)CC3)cc1)=N[C@@H]1CCSC[C@H]21` [Example 23, 3-[1-({4-[(4aR,10bR)-9-ethoxy-8-methoxy-3,4,4a,10b-tetrahydro-1H-thiopyrano[4,3-c]isoquinolin-6-yl]phenyl}carbonyl)piperidin-4-yl]-1-[(1-ethyl-1H-1,2,3-triazol-4-yl)methyl]-6-phenylthieno[3,2-d]pyrimidine-2,4(1H,3H)-dione], the IC50 in experiment [1] is 1 to 10 nM; in experiment [2], above 100 nM.

Consider `CCOc1cc2c(cc1OC)C(c1ccc(C(=O)N3CCC(n4c(=O)c5sc(-c6ccc(F)cc6)cc5n(Cc5nnn(CC)n5)c4=O)CC3)cc1)=N[C@@H]1CCSC[C@H]21` [Example 40, 3-[1-({4-[(4aR,10bR)-9-ethoxy-8-methoxy-3,4,4a,10b-tetrahydro-1H-thiopyrano[4,3-c]isoquinolin-6-yl]phenyl}carbonyl)piperidin-4-yl]-1-[(2-ethyl-2H-tetrazol-5-yl)methyl]-6-(4-fluorophenyl)thieno[3,2-d]pyrimidine-2,4(1H,3H)-dione], for which the results for the IC50 in experiment [1] and in experiment [2] were above 10 nM and below 10 nM, respectively.

For the compound `CCOc1cc2c(cc1OC)C(c1ccc(C(=O)N3CCC(n4c(=O)c5sc(-c6ccccc6)cc5n(Cc5nnnn5COC)c4=O)CC3)cc1)=N[C@@H]1CCSC[C@H]21` [Example 29, 3-[1-({4-[(4aR,10bR)-9-ethoxy-8-methoxy-3,4,4a,10b-tetrahydro-1H-thiopyrano[4,3-c]isoquinolin-6-yl]phenyl}carbonyl)piperidin-4-yl]-1-{[1-(methoxymethyl)-1H-tetrazol-5-yl]methyl}-6-phenylthieno[3,2-d]pyrimidine-2,4(1H,3H)-dione], the IC50 in experiment [1] was below 1 nM; in experiment [2], below 10 nM.

On to `CCOc1cc2c(cc1OC)C(c1ccc(C(=O)N3CCC(n4c(=O)c5sc(-c6ccccc6)cc5n(Cc5nnc(COC)o5)c4=O)CC3)cc1)=N[C@@H]1CCSC[C@H]21` [Example 8, 3-[1-({4-[(4aR,10bR)-9-ethoxy-8-methoxy-3,4,4a,10b-tetrahydro-1H-thiopyrano[4,3-c]isoquinolin-6-yl]phenyl}carbonyl)piperidin-4-yl]-1-{[5-(methoxymethyl)-1,3,4-oxadiazol-2-yl]methyl}-6-phenylthieno[3,2-d]pyrimidine-2,4(1H,3H)-dione], for which the figures for the IC50 in experiment [1] and in experiment [2] were below 1 nM and 10 to 100 nM, respectively.

`CCOc1cc2c(cc1OC)C(c1ccc(C(=O)N3CCC(n4c(=O)c5sc(-c6ccccc6)cc5n(Cc5ncc(C)s5)c4=O)CC3)cc1)=N[C@@H]1CCSC[C@H]21` [Example 12, 3-[1-({4-[(4aR,10bR)-9-ethoxy-8-methoxy-3,4,4a,10b-tetrahydro-1H-thiopyrano[4,3-c]isoquinolin-6-yl]phenyl}carbonyl)piperidin-4-yl]-1-[(5-methyl-1,3-thiazol-2-yl)methyl]-6-phenylthieno[3,2-d]pyrimidine-2,4(1H,3H)-dione]: the results for the IC50 in experiment [1] and in experiment [2] were 1 to 10 nM and 10 to 100 nM, respectively.

Consider `CCOc1cc2c(cc1OC)C(c1cccc(C(=O)N3CCC(n4c(=O)c5sc(-c6cc(OC)ccc6OC)cc5n(Cc5nnn(CC)n5)c4=O)CC3)c1)=N[C@@H]1CCSC[C@H]21` [Example 37, 6-(2,5-dimethoxyphenyl)-3-[1-({3-[(4aR,10bR)-9-ethoxy-8-methoxy-3,4,4a,10b-tetrahydro-1H-thiopyrano[4,3-c]isoquinolin-6-yl]phenyl}carbonyl)piperidin-4-yl]-1-[(2-ethyl-2H-tetrazol-5-yl)methyl]thieno[3,2-d]pyrimidine-2,4(1H,3H)-dione], for which the results for the IC50 in experiment [1] and in experiment [2] were above 10 nM and below 10 nM, respectively.

`CCOc1cc2c(cc1OC)C(c1ccc(C(=O)N3CCC(n4c(=O)c5sc(-c6ccccc6)cc5n(Cc5nc(CSC)no5)c4=O)CC3)cc1)=N[C@@H]1CCSC[C@H]21` [Example 11, 3-[1-({4-[(4aR,10bR)-9-ethoxy-8-methoxy-3,4,4a,10b-tetrahydro-1H-thiopyrano[4,3-c]isoquinolin-6-yl]phenyl}carbonyl)piperidin-4-yl]-1-({3-[(methylsulfanyl)methyl]-1,2,4-oxadiazol-5-yl}methyl)-6-phenylthieno[3,2-d]pyrimidine-2,4(1H,3H)-dione]: the results for the IC50 in experiment [1] and in experiment [2] were 1 to 10 nM and below 10 nM, respectively.

For `CCOc1cc2c(cc1OC)C(c1ccc(C(=O)N3CCC(n4c(=O)c5sc(-c6ccccc6)cc5n(Cc5nnn(CC)n5)c4=O)CC3)cc1)=N[C@@H]1CCSC[C@H]21` [Example 14, 3-[1-({4-[(4aR,10bR)-9-ethoxy-8-methoxy-3,4,4a,10b-tetrahydro-1H-thiopyrano[4,3-c]isoquinolin-6-yl]phenyl}carbonyl)piperidin-4-yl]-1-[(2-ethyl-2H-tetrazol-5-yl)methyl]-6-phenylthieno[3,2-d]pyrimidine-2,4(1H,3H)-dione], the figures for the IC50 in experiment [1] and in experiment [2] were above 10 nM and below 10 nM, respectively.

In the case of `CCOc1cc2c(cc1OC)C(c1cccc(C(=O)N3CCC(n4c(=O)c5sc(-c6ccc(F)cc6OC)cc5n(Cc5nnn(CC)n5)c4=O)CC3)c1)=N[C@@H]1CCSC[C@H]21` [Example 33, 3-[1-({3-[(4aR,10bR)-9-ethoxy-8-methoxy-3,4,4a,10b-tetrahydro-1H-thiopyrano[4,3-c]isoquinolin-6-yl]phenyl}carbonyl)piperidin-4-yl]-1-[(2-ethyl-2H-tetrazol-5-yl)methyl]-6-(4-fluoro-2-methoxyphenyl)thieno[3,2-d]pyrimidine-2,4(1H,3H)-dione], the IC50 in experiment [1] was above 10 nM; in experiment [2], 10 to 100 nM.
